Molecules are shown by their SMILES.

This data set is described as follows: Human HepG2 cell viability assay in 384 well format. In kind it is toxicity, cell-based. Also noted: dose 125 nL, time 70.5 hour; cytotoxicity at 70.5 h: concentration not given beside the values. Particulars: HepG2 cells, read-out: Inhibition.
For the compound `COC(=O)CC1CN(Cc2c(Cl)ccc3cccnc23)CCO1` (configuration not stated), the cytotoxicity at 70.5 h is -12.3%.
The same measure for `CC(CNC(=O)NCc1ccco1)CC1(C)OCCO1` (configuration not stated): 15.5%; for `CC(CNC(=O)NCc1ccc2c(c1)OCO2)CC1(C)OCCO1` (configuration not stated): -5.24%.
Next, `CCc1nsc(N2CCN(Cc3ccno3)CC2)n1`: -0.144%.
The same measure for `CC(O)CN1CCC(CN(C)Cc2cc(C#N)ccc2F)CC1` (configuration not stated): -7.5%.
For `Clc1cccc(CNc2cnn(CCN3CCCCC3)c2)c1`, the cytotoxicity at 70.5 h is -11.9%.
`CC1CN(C(=O)NCCc2nc(C(C)C)no2)CCO1` (configuration not stated): the cytotoxicity at 70.5 h amounted to 10.3%.
The same measure for `Cc1nn(C)c2ncc(CN3CCCCCC3)cc12`: -5.07%; for `CCN1CCOC(CNCc2c(Cl)nc3ccccn23)C1` (configuration not stated): -21.6%.
The same measure for `CCCn1nnnc1COc1cc(OC)ccc1C(N)=O`: -7.31%; for `Cc1noc(C)c1CN(C)Cn1c(=O)oc2ccccc21`: 39.4%; for `O=C(COc1ccccc1)N1CCCC1c1ccc[nH]1` (configuration not stated): -17.9%.
The same measure for `Cc1noc(C)c1CN(C)C(=O)Cn1c(=O)n(C)c2ccccc21`: -15.9%.
As to `CC(C)C(C(=O)N1CCN(Cc2ccncc2)CC1)n1cncn1` (configuration not stated), the cytotoxicity at 70.5 h was -9.68%.
The same measure for `CCC(C)NC(=O)Cc1c(C)nc2c(c1C)c(=O)[nH]n2C` (configuration not stated): -8.46%; for `Cc1cc(C)n(C2CN(Cc3noc(-c4ccccc4)n3)C2)n1`: -4.76%.
Turning to `CCS(=O)(=O)CCNC(=O)c1ccc(-c2ccc(C)cc2)cc1F`, the cytotoxicity at 70.5 h is -6.67%.
On to `CC(C)(C)OC(=O)CNC(=O)CCc1nnc(-c2ccsc2)o1`, for which the cytotoxicity at 70.5 h was 0.905%.
Next, `COc1ccc(-c2nc(CN3CC(n4cc(C)cn4)C3)no2)cc1`: -4.24%; `O=C(NC1(c2cccc(F)c2)CCOCC1)c1ccccn1`: 12%.
Next, `NC(=O)CSCC(=O)N1CCc2cc(Cl)cc(Cl)c2C1`: -10.4%; `Cc1cc(OCC(=O)NC(C)c2ccc(N3CCOCC3)cc2)no1` (configuration not stated): -3.83%.
Next, `CCc1ccc(C2CCCCCN2Cc2nc(CCOC)no2)o1` (configuration not stated): -6.85%.
Take `Clc1ccc(CN2CCCC(Cn3cncn3)C2)c2ncccc12` (configuration not stated): the cytotoxicity at 70.5 h was -8.25%.
Next, `CCc1noc(CN(C)Cc2ccc(N3CCCCC3)cc2)n1`: -7.61%; `CC(C)c1noc(CN(Cc2cccs2)C2CC2)n1`: 6.94%.
Next, `COCCN(C)Cc1ccc(OC)c(OC(F)F)c1`: -5.27%.
The same measure for `COCCC(=O)Nc1ccnc(Oc2ccccc2)c1`: 2.24%; for `O=C(COc1cccc2c1CCC2=O)NCCOc1ccccc1`: 15.4%.
Take `COc1ccc(NC(=O)CNc2ccc(Br)cc2F)cc1`: the cytotoxicity at 70.5 h was -1.21%.
Next, `CCN(CC)C(=O)c1ccc(NC(=O)CNc2ccc(Br)cc2F)cc1`: 4.87%; `Cc1cc(=O)n2ncnc2n1CC(O)c1ccccc1Cl` (configuration not stated): -3.15%.
The same measure for `Cc1ccc(S(=O)(=O)Nc2ccc(-n3cccc3C(=O)O)c(C)c2)s1`: -3.61%.
Next, `Cc1ccc(-c2cc(C(=O)NC(C)C(=O)N3CCCCC3)on2)cc1` (configuration not stated): 5.48%.
With `Cc1ccccc1-c1cc(NC(=O)CC(C)C)n(CCO)n1`, the cytotoxicity at 70.5 h turned out to be 5.13%.
Next, `CC(=O)Nc1nc(CN2CCCCC2Cn2cccn2)cs1` (configuration not stated): 6.38%; `CCCNC(=O)Nc1cccc2c1CCN(S(C)(=O)=O)C2`: -1.5%; `Cc1c(C(=O)NCC2CCCO2)nnn1-c1cccc2c1CCN(C)C2` (configuration not stated): 19.8%.
The same measure for `Cc1cccc(CNC(=O)CNc2cc(CO)ccc2Cl)c1`: -3.8%; for `CCN(C(=O)CCCOc1ccccc1F)c1ccncc1`: 1.58%; for `CN(C)c1cc(C(=O)NCCc2nnc(-c3ccco3)[nH]2)ccn1`: -5.78%.
On to `NC(=O)Nc1cccc(Oc2ccccn2)c1`, for which the cytotoxicity at 70.5 h was -4.42%.
For the compound `Cn1ccnc1CN(CCCO)C1CCCc2ccccc21` (configuration not stated), the cytotoxicity at 70.5 h was 7.41%.
Next, `OCc1ccc(Cl)c(NCc2cccnc2)c1`: 19.4%; `O=C(C1CC1)N1CCCC1C1CCN(Cc2ccccc2)CC1` (configuration not stated): 1.42%; `c1coc(-c2nnc(CN3CCCC(CN4CCCCCC4)C3)o2)c1` (configuration not stated): -1.85%.
With `Cn1ccnc1CNC(=O)N(CCCO)C1CCCc2ccccc21` (configuration not stated), the cytotoxicity at 70.5 h was 21.5%.
For the compound `CN(C)C(=O)Cc1nc(CN2CCOC(Cn3cccn3)C2)cs1` (configuration not stated), the cytotoxicity at 70.5 h turned out to be 1.45%.
The same measure for `CC(C)C(=O)N1CCN(Cc2csc(-c3ncccn3)n2)CC1`: -2.05%; for `Cc1nc(C)n(CC2CCCN(Cc3nnc(C(C)(C)C)o3)C2)n1` (configuration not stated): -0.371%; for `N#Cc1ncn(CCC(=O)Nc2c(Cl)cccc2Cl)n1`: -6.06%.
The same measure for `Cc1ccc(NC(=O)N2CCOC(C)C2)cc1Cl` (configuration not stated): -7.15%; for `CC(C)(C)NC(=O)CN1CCN(C(=O)Nc2ccc(F)cc2F)CC1`: 9.46%; for `Cc1nnc(NC(=O)NC2CCOc3ccccc32)s1` (configuration not stated): -9.45%.
The same measure for `COc1cccc(CN(C)C(=O)CCC(=O)c2ccc(Cl)cc2)c1OC`: -10.4%; for `COCCCN1CCC(NC(=O)C(C)C)CC1`: 7.82%; for `CCNC(=O)c1ccoc1CN1c2ccccc2CC1C` (configuration not stated): -5.21%.
As for `Cc1noc(C)c1CNC(=O)N1CCC(CO)CC1`, the cytotoxicity at 70.5 h was -3.59%.
The same measure for `Cc1ccc(C(=O)N2CCSCC2)cc1NC(=O)Cn1cncn1`: -6.81%.
On to `Cc1cccc(-n2cc(C(=O)N3CCn4c(C)nnc4C3)nn2)c1`, for which the cytotoxicity at 70.5 h is 9.22%.
Consider `Cc1cc(-c2nnn(CCNS(C)(=O)=O)n2)ccc1F`, for which the cytotoxicity at 70.5 h was 1.75%.
On to `O=C(NCC(O)c1cccc(F)c1)c1cccnc1O` (configuration not stated), for which the cytotoxicity at 70.5 h was -5.45%.
In the case of `Cc1ccc(OCC(=O)NCC(C)C)nc1`, the cytotoxicity at 70.5 h was -3.31%.
Next, `N#Cc1ncn(CC(=O)Nc2cc(Cl)ccc2F)n1`: -3.28%; `CSc1ccc(NS(=O)(=O)c2cnn(C)c2)cn1`: -1.76%.
For `N#CCSCCCN1CCN(C(=O)c2ccc(Cl)cc2)CC1`, the cytotoxicity at 70.5 h was determined as 6.83%.
Next, `Cc1ccc(C(=O)N2CCN(CCCSCC#N)CC2)o1`: -3.91%; `CCN(C(c1cccnc1)c1ccc2c(c1)CCO2)S(C)(=O)=O` (configuration not stated): -4.03%; `CCN1CCCN(C(=O)c2cnc(OC(C)C)c(Cl)c2)CC1`: 9.31%.
On to `CCc1nnc(CNCC2CCCN2c2cccnn2)o1` (configuration not stated), for which the cytotoxicity at 70.5 h is -3.72%.
The same measure for `CC(C)Cc1noc(CN2CCN(C(=O)c3ccco3)CC2)n1`: -9.38%.
Next, `Cc1cnn(CC2CCCN2C(=O)CCCc2nc(C)no2)c1` (configuration not stated): 32.9%; `CCc1csc(C2CCCN(C(=O)c3ccnc(N(C)C)c3)C2)n1` (configuration not stated): 19.9%; `CCc1nnc(C(C)N2CCCN(C(=O)Oc3ccccc3)CC2)o1` (configuration not stated): 2.06%.
Next, `CCC(=O)Nc1ccc(C(C)NC(=O)COCCOC)cc1` (configuration not stated): 3.18%; `CN(C)C(=O)N1CCN(CCn2nc3ccccn3c2=O)CC1`: -2.81%; `CCOCC1CN(Cc2cnn(C)c2)Cc2ncn(C)c21` (configuration not stated): -9.79%.
Take `Cc1nccc([C@H]2C[C@@H]3CCN(C(=O)c4c(C)noc4C)C[C@H]3O2)n1`: the cytotoxicity at 70.5 h is 7.48%.
In the case of `O=C1CC2(CCN(Cc3ccoc3)C2)CN1c1cncnc1` (configuration not stated), the cytotoxicity at 70.5 h is -4.55%.
Next, `CN(C)C1COC2(CCN(Cc3ccncc3)CC2)C1` (configuration not stated): -7.75%.
Next, `CC(=O)N1CCC2(CCCN(C(=O)c3ccc(Cl)c(C(F)(F)F)c3)C2)C1` (configuration not stated): -14.2%.
The same measure for `CCOCC1CN(c2ncccn2)Cc2cnn(CC3CCOCC3)c21` (configuration not stated): 9.85%; for `Cc1ccc(CNC(=O)C2=NOC3(CCCNC3)C2)cc1` (configuration not stated): -13.2%.
On to `O=C(NCC1Cn2nnc(-c3ccoc3)c2CO1)c1ccc[nH]1` (configuration not stated), for which the cytotoxicity at 70.5 h was -9.78%.
On to `O=C(NCc1ccc(Cl)cc1)C1=NOC2(CCNC2)C1` (configuration not stated), for which the cytotoxicity at 70.5 h is -9.72%.
Next, `O=C(c1ccoc1)N1CC[C@@H](N2CCOCC2)[C@@H]1Cc1ccccc1`: -10.9%; `CCOCC1CN(Cc2cnn(C)c2)Cc2c1cnn2CC` (configuration not stated): 7.67%.
In the case of `CCOCC1CN(Cc2ccc(F)cc2)Cc2nn(C)cc21` (configuration not stated), the cytotoxicity at 70.5 h is -11.9%.
Next, `Cn1cc(N2CC3(COCCN(Cc4nccs4)C3)OCC2=O)cn1` (configuration not stated): -9.93%; `COCCC(=O)N1CC[C@@H](N2CCOCC2)[C@@H]1Cc1ccccc1`: -8.94%.
For the compound `O=C(c1cnccn1)N1C[C@@H](OCc2cccnc2)[C@H]2OCCC[C@H]21`, the cytotoxicity at 70.5 h came out at 8.16%.
Next, `CCOCC1CN(Cc2cccnc2)Cc2nn(C)cc21` (configuration not stated): -11.3%; `Cc1nnc(N2CC[C@H]3O[C@H](C(=O)NCc4ccccn4)CC[C@H]32)s1`: -6.62%; `O=C1NC2(CCN(Cc3ccoc3)CC2)CC1c1ccncc1` (configuration not stated): 11%.
The same measure for `CCn1ncc2c1C(COCC1CC1)CN(c1ccncn1)C2` (configuration not stated): -8.04%; for `CN(Cc1ccco1)[C@@H]1CN(Cc2nccs2)C[C@@H]2CCCO[C@@H]21`: -5.05%; for `CN(Cc1cncnc1)[C@@H]1CN(Cc2ccco2)C[C@@H]2CCCO[C@@H]21`: -14.6%.
The same measure for `CCOCC1CN(c2ccncn2)Cc2cnn(CC)c21` (configuration not stated): -8.6%.
With `O=C1NC2(CCN(Cc3ccsc3)CC2)CC1c1ccncc1` (configuration not stated), the cytotoxicity at 70.5 h is -9.73%.
The same measure for `COCC1CN(c2ccncn2)Cc2cnn(CC3CCCC3)c21` (configuration not stated): -11.3%.
Next, `N#Cc1cccc(CN2CCC3(CC2)CC(c2ccncc2)C(=O)N3)c1` (configuration not stated): -0.0024%; `CN(Cc1ccco1)[C@@H]1CN(Cc2ccccn2)C[C@@H]2CCCO[C@@H]21`: -9.21%.
